# Laboratory results: ChEMBL document CHEMBL1201862, “PubChem BioAssay data set” (2004)
# Where “and” joins values, the source holds several entries; their conditions need not be identical. Equal values may be shown once.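 Dose response: 5 concentrations. Exposure: 48 h. Format: 96-well plates. Endpoint: linear interpolation; highest concentration if not reached. GI50: concentration for 50% inhibition of growth.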 Calls of active or inactive are those of the source. Rule as the data show it: active = GI50 up to about 1.1 µM and inactive = higher.
# Columns and labels:
# Test in all cases: DTP human tumour cell line panel, 48 h
# M14 = tested on: M14
# TK-10 = tested on: TK-10
# UO-31 = tested on: UO-31
# EKVX = tested on: EKVX
# RXF 393 = tested on: RXF 393
# HCC 2998 = tested on: HCC 2998
# DMS-114 = tested on: DMS-114
# HCT-15 = tested on: HCT-15
# SNB-78 = tested on: SNB-78
# LOX IMVI = tested on: LOX IMVI
# HCT-116 = tested on: HCT-116
# SF-268 = tested on: SF-268
# 786-0 = tested on: 786-0
# Malme-3M = tested on: Malme-3M
# U-251 = tested on: U-251
# SNB-19 = tested on: SNB-19
# SNB-75 = tested on: SNB-75
# K562 = tested on: K562
# DMS-273 = tested on: DMS-273
# NCI-H23 = tested on: NCI-H23
# SF-539 = tested on: SF-539
# RPMI-8226 = tested on: RPMI-8226
# SF-295 = tested on: SF-295
# NCI-H460 = tested on: NCI-H460
# SN12C = tested on: SN12C
# HL-60 = tested on: HL-60
# UACC-62 = tested on: UACC-62
# M19-MEL = tested on: M19-MEL
# SW-620 = tested on: SW-620
# SK-MEL-28 = tested on: SK-MEL-28
# NCI-H522 = tested on: NCI-H522
# KM12 = tested on: KM12
# KM-20L2 = tested on: KM-20L2
# SR = tested on: SR
# UACC-257 = tested on: UACC-257
# IGROV-1 = tested on: IGROV-1
# SK-OV-3 = tested on: SK-OV-3
# MOLT-4 = tested on: MOLT-4
# A549 = tested on: A549
# CCRF-CEM = tested on: CCRF-CEM
# NCI-H226 = tested on: NCI-H226
# COLO 205 = tested on: COLO 205
# DLD-1 = tested on: DLD-1
# LXFL 529 = tested on: LXFL 529
# OVCAR-3 = tested on: OVCAR-3
# OVCAR-8 = tested on: OVCAR-8
# ACHN = tested on: ACHN
# HOP-62 = tested on: HOP-62
# HT-29 = tested on: HT-29
# HOP-92 = tested on: HOP-92
# SK-MEL-5 = tested on: SK-MEL-5
# SK-MEL-2 = tested on: SK-MEL-2
# OVCAR-4 = tested on: OVCAR-4
# OVCAR-5 = tested on: OVCAR-5
# CAKI-1 = tested on: CAKI-1
# A498 = tested on: A498
compound,measurement,setting,value
CCCCc1c2c(nc3c1CCc1cc4cc5c(nc4nc1-3)-c1nc3c(c(CCCC)c1CC5)CCCC3)CCCC2,GI50,M14,53.1 µM (inactive)
same,GI50,TK-10,26.9 µM (inactive)
same,GI50,UO-31,68.5 µM (inactive)
same,GI50,EKVX,12.5 µM (inactive)
same,GI50,RXF 393,6.56 µM (inactive)
same,GI50,HCC 2998,62.2 µM (inactive)
same,GI50,DMS-114,26.8 µM (inactive)
same,GI50,HCT-15,33.2 µM
same,GI50,SNB-78,> 100 µM (inactive)
same,GI50,LOX IMVI,41.9 µM (inactive)
same,GI50,HCT-116,34.5 µM (inactive)
same,GI50,SF-268,39.3 µM (inactive)
same,GI50,786-0,23.6 µM (inactive)
same,GI50,Malme-3M,38.6 µM (inactive)
same,GI50,U-251,31.8 µM (inactive)
same,GI50,SNB-19,34.4 µM (inactive)
same,GI50,SNB-75,49.9 µM (inactive)
same,GI50,K562,39.4 µM (inactive)
same,GI50,DMS-273,42.2 µM (inactive)
same,GI50,NCI-H23,49.5 µM (inactive)
same,GI50,SF-539,16.4 µM (inactive)
same,GI50,RPMI-8226,27 µM (inactive)
same,GI50,SF-295,15.7 µM (inactive)
same,GI50,NCI-H460,47.1 µM (inactive)
same,GI50,SN12C,56.4 µM (inactive)
same,GI50,HL-60,42.1 µM (inactive)
same,GI50,UACC-62,19.6 µM (inactive)
same,GI50,M19-MEL,54 µM (inactive)
same,GI50,SW-620,40 µM (inactive)
same,GI50,SK-MEL-28,69.5 µM (inactive)
same,GI50,NCI-H522,43.7 µM (inactive)
same,GI50,KM12,48.1 µM (inactive)
same,GI50,KM-20L2,22.8 µM (inactive)
same,GI50,SR,47.4 µM (inactive)
same,GI50,UACC-257,59.8 µM (inactive)
same,GI50,IGROV-1,38.5 µM (inactive)
same,GI50,SK-OV-3,36.5 µM (inactive)
same,GI50,MOLT-4,35.2 µM (inactive)
same,GI50,A549,20.5 µM (inactive)
same,GI50,CCRF-CEM,31.7 µM (inactive)
same,GI50,NCI-H226,19.4 µM (inactive)
same,GI50,COLO 205,35.4 µM (inactive)
same,GI50,DLD-1,59.8 µM (inactive)
same,GI50,LXFL 529,18 µM (inactive)
same,GI50,OVCAR-3,> 10 µM (inactive)
same,GI50,OVCAR-8,39.6 µM (inactive)
same,GI50,ACHN,23.8 µM (inactive)
same,GI50,HOP-62,37.9 µM (inactive)
same,GI50,HT-29,7.28 µM (inactive)
C/C=C/C=C/CCCCCCCCCCCCC[C@]1(OC)C=C[C@@H](CC(=O)OC)OO1 [XESTIN A],GI50,M14,14.8 µM (inactive) and 17 µM (inactive)
same,GI50,UO-31,2.77 µM (inactive)
same,GI50,HCT-116,16.1 µM (inactive) and 10.1 µM (inactive)
same,GI50,SF-268,17.3 µM (inactive) and 21.7 µM (inactive)
same,GI50,Malme-3M,26.7 µM (inactive) and 21.4 µM (inactive)
same,GI50,U-251,14.7 µM (inactive) and > 10 µM (inactive)
same,GI50,SNB-19,17.8 µM (inactive)
same,GI50,SNB-75,17.4 µM (inactive) and 9.64 µM (inactive)
same,GI50,K562,12.2 µM (inactive) and 20.5 µM (inactive)
same,GI50,DMS-273,1.57 µM (inactive)
same,GI50,SF-539,15.2 µM (inactive) and 19.7 µM (inactive)
same,GI50,RPMI-8226,7.45 µM (inactive) and 13.5 µM (inactive)
same,GI50,NCI-H460,22.4 µM (inactive) and 15.1 µM (inactive)
same,GI50,SN12C,12.9 µM (inactive) and 21.6 µM (inactive)
same,GI50,HL-60,3.59 µM (inactive)
same,GI50,UACC-62,14.1 µM (inactive) and 15.3 µM (inactive)
same,GI50,HOP-92,1.88 µM (inactive)
same,GI50,M19-MEL,16.9 µM (inactive) and 11 µM (inactive)
same,GI50,SK-MEL-28,15.3 µM (inactive) and 17.5 µM (inactive)
same,GI50,SK-MEL-5,15.6 µM (inactive) and 10.1 µM (inactive)
same,GI50,SR,2.36 µM (inactive)
same,GI50,UACC-257,20.2 µM (inactive) and 17.4 µM (inactive)
same,GI50,SK-MEL-2,15.5 µM (inactive) and 25.5 µM (inactive)
same,GI50,SK-OV-3,28.6 µM (inactive) and 19.5 µM (inactive)
COc1cc2c(cc1OC)-c1c(cnn1C1OC(COC(C)=O)C(OC(C)=O)C(OC(C)=O)C1OC(C)=O)CC2 (stereo not given),GI50,M14,> 100 µM (inactive)
same,GI50,TK-10,> 100 µM (inactive)
same,GI50,UO-31,55.7 µM (inactive)
same,GI50,EKVX,> 100 µM (inactive)
same,GI50,DMS-114,72.6 µM (inactive)
same,GI50,HCT-15,> 100 µM
same,GI50,SNB-78,> 100 µM (inactive)
same,GI50,LOX IMVI,> 100 µM (inactive)
same,GI50,HCT-116,> 100 µM (inactive)
same,GI50,SF-268,> 100 µM (inactive)
same,GI50,786-0,> 100 µM (inactive)
same,GI50,U-251,34.1 µM (inactive)
same,GI50,SNB-19,> 100 µM (inactive)
same,GI50,OVCAR-4,> 100 µM (inactive)
same,GI50,SNB-75,48.9 µM (inactive)
same,GI50,K562,33 µM (inactive)
same,GI50,DMS-273,> 100 µM (inactive)
same,GI50,OVCAR-5,> 100 µM (inactive)
same,GI50,NCI-H23,> 100 µM (inactive)
same,GI50,SF-539,> 100 µM (inactive)
same,GI50,RPMI-8226,> 42.8 µM (inactive)
same,GI50,SF-295,> 100 µM (inactive)
same,GI50,NCI-H460,> 100 µM (inactive)
same,GI50,HL-60,11 µM (inactive)
same,GI50,UACC-62,> 100 µM (inactive)
same,GI50,HOP-92,48.1 µM (inactive)
same,GI50,M19-MEL,> 89.1 µM (inactive)
same,GI50,SW-620,> 60.7 µM (inactive)
same,GI50,CAKI-1,> 100 µM (inactive)
same,GI50,SK-MEL-28,> 100 µM (inactive)
same,GI50,NCI-H522,18.7 µM (inactive)
same,GI50,SK-MEL-5,> 83.4 µM (inactive)
same,GI50,KM12,> 100 µM (inactive)
same,GI50,KM-20L2,> 100 µM (inactive)
same,GI50,SR,10.5 µM (inactive)
same,GI50,UACC-257,> 100 µM (inactive)
same,GI50,SK-MEL-2,> 100 µM (inactive)
same,GI50,IGROV-1,> 100 µM (inactive)
same,GI50,SK-OV-3,> 100 µM (inactive)
same,GI50,MOLT-4,> 81.5 µM (inactive)
same,GI50,A549,> 100 µM (inactive)
same,GI50,CCRF-CEM,28.6 µM (inactive)
same,GI50,NCI-H226,> 100 µM (inactive)
same,GI50,A498,> 100 µM (inactive)
same,GI50,COLO 205,> 100 µM (inactive)
same,GI50,DLD-1,> 100 µM (inactive)
same,GI50,LXFL 529,> 85.7 µM (inactive)
same,GI50,OVCAR-3,> 88.1 µM (inactive)
same,GI50,OVCAR-8,> 100 µM (inactive)
same,GI50,ACHN,> 100 µM (inactive)
same,GI50,HOP-62,> 100 µM (inactive)
same,GI50,HT-29,> 100 µM (inactive)
